Assays:
Type in all cases: physicochemical
[1] = Adhesiveness (crystals adhering to test tube wall); details: weight of adhering crystals / weight filled, test tube 16 mm
Description: Chloromandelic acid crystals were naturally dropped in a dry test tube having an inside diameter of 16 mm, so that the height of the crystals became approximately 10 cm. Thereafter, the test tube containing chloromandelic acid crystals was slowly inverted, so that the test tube was completely turned upside down and the crystals were dropped. Thereafter, the weight of the test tube was measured, and the weight of chloromandelic acid crystals adhered to the inner wall of the test tube was obtained. The ratio (%) of the weight of the adhering crystals to the weight of the initially filled chloromandelic acid crystals was defined as an index of adhesiveness.

[2] = Measurement of compression rate; details: (volume 1−volume 2)/volume 1
Description: Measurement of Compression Rate
An approximately 7-cm^3 chloromandelic acid crystal was passed through a funnel with a diameter of 9 mm, and it was naturally dropped into a 10 ml measuring cylinder from a height of 20 cm, so that the volume of the crystals was measured (volume 1). Thereafter, the crystals in the measuring cylinder were compressed with a glass rod until their volume was not reduced, and the volume after the compression was measured (volume 2). Compression rate was calculated according to the following formula.
Compression rate=(volume 1−volume 2)/volume 1

[3] = Measurement of water content (Karl Fischer method); details: for Water content: dried crystals, Karl Fischer
Description: Measurement of Water Content
Water content was measured by the Karl Fischer method.

[4] = Flowability (flow limit diameter through glass funnels); details: minimum funnel inside diameter without blockage in 5 tests, 15 g crystals
Description: Glass funnels obtained by connecting glass tubes (cylindrical portions) having inside diameters of 4, 5, 6, 8, 9 and 11 mm with the edges of cones with apical angles of 60° were used. The outlet of each funnel (outlet of cylindrical portion) was closed. […] During this process, the funnel should not be shaken, and chloromandelic acid crystals should not be pushed into the funnel by compression. Thereafter, each funnel containing chloromandelic acid crystals was left at rest, the outlet of the cylindrical portion of each funnel was opened, and the crystals were naturally dropped from the outlets. This operation was carried out 5 times, using each of the above described funnels having cylindrical portions with inside diameters of 4, 5, 6, 8, 9 and 11 mm. Flow limit diameter (mm) was defined as a minimum inside diameter capable of naturally dropping the total amount of chloromandelic acid crystals in all of the above 5 tests with no blockage in the funnels. The flow limit diameter was defined as an index of fluidity.

Appearance of crystals = details: dried crystals
Description: Subsequently, the (R)-2-chloromandelic acid crystals obtained in Examples 1 to 6 and Comparative examples 1 and 2 were measured regarding appearance, water content, filling density, compression rate, and particle size distribution. Each of the above items was measured according to the following methods.

[5] = Measurement of particle size distribution (sieving); details: for Particle size distribution 300 to 1,000 μm: sieve fraction 300 to 1,000 μm; for Particle size distribution <300 μm: sieve fraction <300 μm; for Particle size distribution 1,000 μm<: sieve fraction above 1,000 μm
Description: Measurement of Particle Size Distribution
The crystals were shifted using a microtype electromagnetic vibrating shifter (M-2 type, manufactured by Tsutsui Rikagaku Kikai Co., Ltd.), and their weight was measured, so that their particle size distribution was obtained. 20 g of the crystals was placed on a sieve with a mesh of 1,000 μm, and another sieve with a mesh of 300 μm was placed below the above sieve followed by vibration for 10 minutes.

[6] = Measurement of filling (packing) density; details: natural drop into 50 ml measuring cylinder
Description: Measurement of Filling (Packing) Density
10 to 20 g of each of the crystals obtained in the above Examples and Comparative examples was weighed, and it was passed through a funnel with a diameter of 20 mm to naturally drop into a 50 ml measuring cylinder, so that the weight and volume of the crystals were measured and the filling density was calculated.

Adhesion rate [1] [%]	Compression rate [2]	Water content [3] [wt %]	Flow limit diameter [4] [mm]	Appearance (Appearance of crystals)	Particle size distribution 300 to 1,000 μm [5] [weight %]	Particle size distribution <300 μm [5] [weight %]	Particle size distribution 1,000 μm< [5] [weight %]	Filling density [6] [g/mL]	Water content of crystal wet product ([3]; wet product after filtration and washing, before drying) [% by weight]	SMILES
0.130	0.03	0.076	5	Granular	73.1	18.4	8.5	0.68		O=C(O)[C@H](O)c1ccccc1Cl [Example 5, (R)-2-chloromandelic acid]
0.500	0.62	0.005	11	Scale	71.3	24.6	4.1	0.29		O=C(O)[C@H](O)c1ccccc1Cl [compound 2, (R)-2-chloromandelic acid, reference compound]
0.140	0.03	0.080	5	Granular	71.3	19.0	9.7	0.64		O=C(O)[C@H](O)c1ccccc1Cl [Example 6, (R)-2-chloromandelic acid]
0.110	0.03	0.062	5	Granular	72.2	17.3	10.5	0.68	10	O=C(O)[C@H](O)c1ccccc1Cl [Example 4, (R)-2-chloromandelic acid]
0.830	0.04	0.110	9	Fine	46.5	46.2	7.3	0.68		O=C(O)[C@H](O)c1ccccc1Cl [compound 1, (R)-2-chloromandelic acid, reference compound]

The next lines start with the molecule.

SMILES	Adhesion rate [1] [%]	Compression rate [2]	Water content [3] [wt %]	Flow limit diameter [4] [mm]	Appearance (Appearance of crystals)	Particle size distribution 300 to 1,000 μm [5] [weight %]	Particle size distribution <300 μm [5] [weight %]	Particle size distribution 1,000 μm< [5] [weight %]	Filling density [6] [g/mL]	Water content of crystal wet product ([3]; wet product after filtration and washing, before drying) [% by weight]
O=C(O)[C@H](O)c1ccccc1Cl [Example 2, (R)-2-chloromandelic acid]	0.061	0.03	0.049	5	Granular	73.2	18.2	8.0	0.63	
O=C(O)[C@H](O)c1ccccc1Cl [Example 1, (R)-2-chloromandelic acid]	0.057	0.03	0.046	5	Granular	73.5	15.5	11.0	0.65	
O=C(O)[C@H](O)c1ccccc1Cl [Example 3, (R)-2-chloromandelic acid]	0.058	0.03	0.058	5	Granular	71.0	16.6	12.4	0.63	
